Here are results for 22 molecules from patent publication US12384769B2, “Heteroaryl-substituted aminoalkyl azole compounds as pesticides” (Elanco Animal Health GmbH, priority 2019, dated 2025).

Each structure is given as a SMILES string.

Format in all cases: in vivo
For assay [1], the system named is Boophilus microplus. The assay is described as follows: Boophilus microplus injection test (BOOPMI Injection). The settings on record: Rhipicephalus microplus, 168 h, injection into adult engorged female ticks, egg deposition after 7 days, read-out: activity (efficacy, infertile eggs); for pest or weed control at 0.004 mg: 4 μg/animal; for pest or weed control at 0.02 mg: 20 μg/animal. The protocol:
Boophilus microplus—Injection Test (BOOPMI Injection)
Solvent: dimethyl sulfoxide
To produce a suitable preparation of active compound, 10 mg of active compound are dissolved in 0.5 mL solvent, and the concentrate is diluted with solvent to the desired concentration.
Five adult engorged female ticks (Boophilus microplus) are injected with 1 μL compound solution into the abdomen. The ticks are transferred into replica plates and incubated in a climate chamber.
After 7 days egg deposition of fertile eggs is monitored. Eggs where fertility is not visible are stored in a climate chamber till hatching after about 42 days. An efficacy of 100% means all eggs are infertile; 0% means all eggs are fertile.

The subject of assay [2] is Rhipicephalus microplus (strain Parkhurst, resistant against synthetic pyrethroids). The assay is described as follows: Rhipicephalus microplus in-vitro contact test, larval cattle tick (BOOPMI Contact). The conditions noted are these: 5 μg/cm^2 (=500 g/ha), after 48 hours, read-out: activity (efficacy, larvae dead or moribund). The protocol: Rhipicephalus microplus—in-Vitro Contact Tests Larval Cattle Tick (Strain Parkhurst, Resistant Against Synthetic Pyrethroids) (BOOPMI Contact)
9 mg compound is solved in 1 ml acetone and diluted with acetone to the desired concentration. 250 μL of the test solution is filled in 25 ml glass test tubes and homogeneously distributed on the inner walls by rotation and tilting on a shaking device (2 h at 30 rpm). With a compound concentration of 900 ppm, an inner surface of 44.7 cm^2 and a homogeneous distribution, a dose of 5 μg/cm^2 is achieved.
After the solvent has evaporated, each test tube is filled with 20-50 cattle tick larvae (Rhipicephalus microplus), closed with a perforated lid and incubated in a horizontal position at 85% relative humidity and 27° C. in an incubator. After 48 hours efficacy is determined. The larvae are patted on the ground of the tubes and negative geotactic behaviour is recorded.
An efficacy of 100% means all larvae are dead or moribund; 0% means no larvae are dead or moribund.

The test system of assay [3] is Spodoptera frugiperda. The assay is described as follows: Spodoptera frugiperda spray test. The conditions noted are these: in Zea mays, 168 h, read-out: activity (mortality). The method, then:
Spodoptera frugiperda—Spray Test
Solvent: 78.0 parts by weight acetone • 1.5 parts by weight dimethylformamide
(§1) Emulsifier: alkylarylpolyglycol ether
To produce a suitable preparation of active compound, 1 part by weight of active compound is mixed with the stated amount of solvents and is diluted with water, containing an emulsifier concentration of 1000 ppm, to the desired concentration. Further test concentrations are prepared by dilution with emulsifier containing water.
Maize (Zea mays) leaf sections are sprayed with a preparation of the active ingredient of the desired concentration. Once dry, the leaf sections are infested with fall armyworm larvae (Spodoptera frugiperda).
After 7 days mortality in % is determined. 100% means all caterpillars have been killed and 0% means none of the caterpillars have been killed.

For assay [4], the system named is Diabrotica balteata. The assay is described as follows: Diabrotica balteata spray test. The settings on record: 168 h, wheat seeds, after 7 days, read-out: activity (efficacy, seedlings grown); for pest or weed control at 160 µg/disc, 500 g/ha: 500 g/ha (=160 μg/well). The protocol: Diabrotica balteata—Spray Test
Solvent: 78.0 parts by weight of acetone • • 1.5 parts by weight of dimethylformamide
as §1
To produce a suitable preparation of active compound, 1 part by weight of active compound is mixed with the stated amount of solvent, and the concentrate is diluted with water, containing an emulsifier concentration of 1000 ppm, to the desired concentration. Further test concentrations are prepared by dilution with emulsifier containing water.
Soaked wheat seeds (Triticum aestivum) are placed in a multiple well plate filled with agar and some water and are incubated for 1 day to germinate (5 seeds per well). The germinated wheat seeds are sprayed with a test solution containing the desired concentration of the active ingredient. Afterwards each unit is infected with 10-20 larvae of the banded cucumber beetle (Diabrotica balteata).
After 7 days efficacy in % is determined. 100% means all the seedlings have grown up like in the untreated, uninfected control; 0% means none of the seedlings have grown.

For the molecule `Cc1csc(-n2ncnc2[C@H](C)Nc2nc3cc(C(F)(F)F)cc(Cl)c3o2)n1` [Example I-038, 7-chloro-N-{(1S)-1-[1-(4-methyl-1,3-thiazol-2-yl)-1H-1,2,4-triazol-5-yl]ethyl}-5-(trifluoromethyl)-1,3-benzoxazol-2-amine], the pest or weed control at 0.004 mg in assay [1] was found to be 80%.

Take `COc1ccnc(-n2ncnc2[C@H](C)Nc2nc3cc(C(F)(F)F)cc(Cl)c3o2)n1` [Example I-051, 7-Chlor-N-{(1S)-1-[1-(4-methoxypyrimidin-2-yl)-1H-1,2,4-triazol-5-yl]ethyl}-5-(trifluormethyl)-1,3-benzoxaozl-2-amin]: the pest or weed control at 5 µg/cm2 in assay [2] was determined as 80%. The pest or weed control at 0.02 mg in assay [1] was 100%.

As for `CC(C)c1cc(Cl)c2oc(N[C@@H](C)c3ncnn3-c3ncc(Br)cn3)nc2c1` [Example I-068, N-{(1S)-1-[1-(5-Brompyrimidin-2-yl)-1H-1,2,4-triazol-5-yl]ethyl}-7-chlor-5-isopropyl-1,3-benzoxazol-2-amin], the pest or weed control at 5 µg/cm2 in assay [2] worked out at 80%. In assay [1], the pest or weed control at 0.004 mg worked out at 100% and the pest or weed control at 0.02 mg is 100%.

Take `C[C@H](Nc1nc2cc(C(F)(F)F)cc(C(F)(F)F)c2o1)c1ncnn1-c1ccc(Cl)cn1` [Example I-032]: the pest or weed control at 0.02 mg in assay [1] was 100%. Besides, in assay [3], the mortality (commonly the share of the test organisms that died) at 500 g/ha worked out at 100%.

Regarding `C[C@H](Nc1nc2cc(C(F)(F)F)cc(Cl)c2o1)c1ncnn1-c1ccc(C(F)(F)F)cn1` [Example I-027], the pest or weed control at 5 µg/cm2 in assay [2] worked out at 100%. In addition, in assay [1], the pest or weed control at 0.004 mg came to 100% and the pest or weed control at 0.02 mg is 100%. The mortality at 500 g/ha in assay [3] was determined as 100%.

Take `CC(C)c1cc(Cl)c2oc(N[C@@H](C)c3ncnn3-c3cc(C#N)ccn3)nc2c1` [Example I-064, 2-(5-{(1S)-1-[(7-Chlor-5-isopropyl-1,3-benzoxazol-2-yl)amino]ethyl}-1H-1,2,4-triazol-1-yl)isonicotinonitril]: the pest or weed control at 0.02 mg in assay [1] was determined as 80%. In assay [4], the pest or weed control at 100 g/ha was found to be 100% and the pest or weed control at 160 µg/disc, 500 g/ha amounted to 100%.

For the molecule `Cc1nc([C@H](C)Nc2nc3cc(C(F)(F)F)cc(C(F)(F)F)c3o2)n(-c2ccc(C#N)cn2)n1` [Example I-021], the pest or weed control at 5 µg/cm2 in assay [2] was determined as 80%. In addition, in assay [1], the pest or weed control at 0.004 mg is 100% and the pest or weed control at 0.02 mg stood at 100%. In assay [4], the pest or weed control at 100 g/ha amounted to 100% and the pest or weed control at 160 µg/disc, 500 g/ha is 100%.

`C[C@H](Nc1nc2cc(S(=O)(=O)c3ccccc3)cc(Cl)c2o1)c1ncnn1-c1ncccn1` [Example I-080, 7-Chlor-5-(phenylsulfonyl)-N-{(1S)-1-[1-(pyrimidin-2-yl)-1H-1,2,4-triazol-5-yl]ethyl}-1,3-benzoxazol-2-amin]: the pest or weed control at 5 µg/cm2 in assay [2] amounted to 100%.

As to `COc1cnc(-n2ncnc2[C@H](C)Nc2nc3cc(C(F)(F)F)cc(Cl)c3o2)nc1` [Example I-043, 7-Chlor-N-{(1S)-1-[1-(5-methoxypyrimidin-2-yl)-1H-1,2,4-triazol-5-yl]ethyl}-5-(trifluormethyl)-1,3-benzoxazol-2-amin], in assay [3], the mortality at 100 g/ha stood at 100%.

Regarding `Cc1nc([C@H](C)Nc2nc3cc(Cl)cc(C(F)(F)F)c3o2)n(-c2ncccn2)n1` [Example I-089, 5-Chlor-N-{(1S)-1-[3-methyl-1-(pyrimidin-2-yl)-1H-1,2,4-triazol-5-yl]ethyl}-7-(trifluormethyl)-1,3-benzoxazol-2-amin], in assay [1], the pest or weed control at 0.004 mg is 100% and the pest or weed control at 0.02 mg stood at 100%.

For `C[C@H](Nc1nc2cc(C(F)(F)F)cc(C(F)(F)F)c2o1)c1ncnn1-c1ccc(C(F)(F)F)cn1` [Example I-030], in assay [1], the pest or weed control at 0.004 mg was determined as 80% and the pest or weed control at 0.02 mg is 100%.

In the case of `C[C@H](Nc1nc2cc(C(F)(F)F)cc(Br)c2o1)c1ncnn1-c1ccc(Cl)cn1` [Example I-054, 7-Brom-N-{(1S)-1-[1-(5-chlorpyridin-2-yl)-1H-1,2,4-triazol-5-yl]ethyl}-5-(trifluormethyl)-1,3-benzoxazol-2-amin], the pest or weed control at 5 µg/cm2 in assay [2] is 100%. Also, in assay [1], the pest or weed control at 0.02 mg stood at 100%. Moreover, in assay [3], the mortality at 500 g/ha amounted to 100%.

`COc1nc([C@H](C)Nc2nc3cc(C(F)(F)F)c(Cl)cc3o2)n(-c2ccc(C#N)cn2)n1` [Example I-101, 6-{5-[(1S)-1-{[6-chloro-5-(trifluoromethyl)-1,3-benzoxazol-2-yl]amino}ethyl]-3-methoxy-1H-1,2,4-triazol-1-yl}pyridine-3-carbonitrile]: the pest or weed control at 100 g/ha in assay [4] is 100%.

With `C[C@H](Nc1nc2cc(C(F)(F)F)cc(Cl)c2o1)c1ncnn1-c1ccc(Cl)cn1` [Example I-015], in assay [2], the pest or weed control at 5 µg/cm2 came to 100%. Besides, in assay [1], the pest or weed control at 0.004 mg is 80% and the pest or weed control at 0.02 mg stood at 100%. In assay [3], the mortality at 500 g/ha worked out at 100%. Moreover, the pest or weed control at 160 µg/disc, 500 g/ha in assay [4] is 100%.

Consider `Cc1nc([C@H](C)Nc2nc3cc(C(F)(F)F)cc(C(F)(F)F)c3o2)n(-c2ccc(C(F)(F)F)cn2)n1` [Example I-029], for which the pest or weed control at 5 µg/cm2 in assay [2] is 100%.

Regarding `C[C@H](Nc1nc2cc(C(F)(F)F)c(Cl)cc2o1)c1ncnn1-c1ccc(C(=O)N2CCCC2)cn1` [Example I-103, (6-{5-[(1S)-1-{[6-chloro-5-(trifluroomethyl)-1,3-benzoxazol-2-yl]amino}ethyl]-1H-1,2,4-triazol-1-yl}pyridin-3-yl)(pyrrolidin-1-yl)methanone], the pest or weed control at 100 g/ha in assay [4] was 100%.

In the case of `C[C@H](Nc1nc2cc(C(C)(C)C)cc(Cl)c2o1)c1ncnn1-c1ccc(C#N)cn1` [Example I-077, 6-(5-[(1S)-1-[(5-tert-Butyl-7-chlor-1,3-benzoxazol-2-yl)amino]ethyl}-1H-1,2,4-triazol-1-yl)nicotinonitril], in assay [1], the pest or weed control at 0.004 mg stood at 100% and the pest or weed control at 0.02 mg came out at 100%.

Take `Cc1nc([C@H](C)Nc2nc3cc(C(F)(F)F)cc(Cl)c3o2)n(-c2ccc(C#N)cn2)n1` [Example I-020]: in assay [2], the pest or weed control at 5 µg/cm2 is 100%.

Regarding `CCN(CC)C(=O)c1ccc(-n2ncnc2[C@H](C)Nc2nc3cc(C(F)(F)F)c(Cl)cc3o2)nc1` [Example I-102, 6-{5-[(1S)-1-{[6-chloro-5-(trifluoromethyl)-1,3-benzoxazol-2-yl]amino}ethyl]-1H-1,2,4-triazol-1-yl}-N,N-diethylpyridine-3-carboxamide], in assay [3], the mortality at 100 g/ha stood at 100%. In addition, the pest or weed control at 100 g/ha in assay [4] was found to be 100%.

As for `C[C@H](Nc1nc2cc(C(F)(F)F)ccc2o1)c1ncnn1-c1ncccn1` [Example I-003], the pest or weed control at 160 µg/disc, 500 g/ha in assay [4] is 80%.

Consider `CC(C)c1cc(Cl)c2oc(N[C@@H](C)c3ncnn3-c3ncccn3)nc2c1` [Example I-063, 7-Chlor-5-isopropyl-N-{(1S)-1-[1-(pyrimidin-2-yl)-1H-1,2,4-triazol-5-yl]ethyl}-1,3-benzoxazol-2-amin], for which, in assay [1], the pest or weed control at 0.004 mg is 80% and the pest or weed control at 0.02 mg stood at 100%. Further, in assay [4], the pest or weed control at 100 g/ha amounted to 100% and the pest or weed control at 160 µg/disc, 500 g/ha turned out to be 80%.

As to `C[C@H](Nc1nc2cc(C(F)(F)F)cc(Cl)c2o1)c1ncnn1-c1ccc(C#N)cn1` [Example I-018], the pest or weed control at 5 µg/cm2 in assay [2] was determined as 80%. Moreover, in assay [1], the pest or weed control at 0.004 mg came out at 100% and the pest or weed control at 0.02 mg was 100%. Moreover, in assay [3], the mortality at 100 g/ha amounted to 100% and the mortality at 500 g/ha turned out to be 100%. In assay [4], the pest or weed control at 100 g/ha was determined as 100% and the pest or weed control at 160 µg/disc, 500 g/ha was determined as 100%.
